Results taken from patent publication US12698507B2, “Methods and compositions for conferring and/or enhancing herbicide tolerance using protoporphyrinogen IX oxidase of various cyanobacteria or variant thereof” (FarmHannong Co., Ltd., priority 2019, dated 2026).
Like-named read-outs stand apart in the source and are kept apart here.

Tests used:
[1] = test system: PPO-deficient BT3 E. coli (ΔPPO) transformed with CyPPO19 variant R89A+F360M (Thermosynechococcus elongatus PKUAC-SCTE542, SEQ ID NO: 1); assay: Herbicide tolerance test in E. coli, CyPPO19 R89A+F360M; type: cell-based; conditions: LB agar, 0 to 2,000 μM herbicide, 37° C., 16-20 hours
Description: (§1) To enhance the PPO-inhibiting herbicide resistance of CyPPO19 and CyPPO18, PPO variant genes of the above example 2 were constructed. They were transformed to BT3 (ΔPPO) strain which is deficient of PPO activity and cultured in LB media with PPO-inhibiting herbicide, thereby examining whether growth of transformed BT3 was not inhibited.
(§2) BT3 competent cells were transformed with the pET303-CyPPO19 (wild type), pET303-CyPPO18 (wild type) plasmids, and those with a mutation(s) constructed (refer to example 2) via heat shock method, and were cultured in LB agar media containing ampicillin.
(§3) Single colony transformed with each CyPPO gene was cultured in 3 mL of LB broth (LPSS) containing ampicillin for more than 12 hours, and then was subcultured in LB broth until absorbance (OD600) reached 0.5 to 1. Then, it was diluted with LB broth to OD600=0.5. Again, the diluted solution was serially diluted 4 times by a factor of one tenth. […]
(§4) Then, 10 μL of each diluted solution of E. coli was dropped on the plate and cultured at 37° C. under dark for 16-20 hours. PPO-inhibiting herbicide resistance was evaluated with the extent of E. coli growth containing each gene was observed.
(§5) The extent of herbicide resistance was evaluated by the relative growth of variants to that of wild type, and listed in Tables 9 and 10 and FIGS. 3 to 32. […]

[2] = target: Thermosynechococcus vulcanus NIES-2134 protoporphyrinogen IX oxidase CyPPO18 (SEQ ID NO: 3) variant L327T (MBP fusion) (Thermosynechococcus vestitus, UniProt Q8DLV2, L327T); assay: PPO enzyme inhibition assay (IC50 for herbicides), CyPPO18 L327T fused to MBP; type: biochemical; conditions: 50 μM protoporphyrinogen IX, pH 7.5, room temperature, 30 min
[3] = test system: PPO-deficient BT3 E. coli (ΔPPO) transformed with CyPPO18 variant A167L+F360I (Thermosynechococcus vulcanus NIES-2134, SEQ ID NO: 3); assay: Herbicide tolerance test in E. coli, CyPPO18 A167L+F360I; type: cell-based; conditions: LB agar, 0 to 2,000 μM herbicide, 37° C., 16-20 hours
Description: as §1, §2, §3, §4, §5

[4] = target: Thermosynechococcus elongatus PKUAC-SCTE542 protoporphyrinogen IX oxidase CyPPO19 (SEQ ID NO: 1) variant A167L (MBP fusion) (Thermosynechococcus sichuanensis, UniProt A0A7D6JSC1, A167L); assay: biochemical; conditions: 50 μM protoporphyrinogen IX, pH 7.5, room temperature, 30 min, 10,000 means equivalent to or higher
[5] = target: Thermosynechococcus vulcanus NIES-2134 protoporphyrinogen IX oxidase CyPPO18 (SEQ ID NO: 3) variant A167L (MBP fusion) (Thermosynechococcus vestitus, UniProt Q8DLV2, A167L); assay: PPO enzyme inhibition assay (IC50 for herbicides), CyPPO18 A167L fused to MBP; type: biochemical; conditions: 50 μM protoporphyrinogen IX, pH 7.5, room temperature, 30 min
[6] = target: Thermosynechococcus vulcanus NIES-2134 protoporphyrinogen IX oxidase CyPPO18 (SEQ ID NO: 3) variant V165S (MBP fusion) (Thermosynechococcus vestitus, UniProt Q8DLV2, V165S); assay: PPO enzyme inhibition assay (IC50 for herbicides), CyPPO18 V165S fused to MBP; type: biochemical; conditions: 50 μM protoporphyrinogen IX, pH 7.5, room temperature, 30 min
[7] = target: Thermosynechococcus elongatus PKUAC-SCTE542 protoporphyrinogen IX oxidase CyPPO19 (SEQ ID NO: 1) variant V165C (MBP fusion) (Thermosynechococcus sichuanensis, UniProt A0A7D6JSC1, V165C); assay: PPO enzyme inhibition assay (IC50 for herbicides), CyPPO19 V165C fused to MBP; type: biochemical
[8] = test system: PPO-deficient BT3 E. coli (ΔPPO) transformed with CyPPO19 variant R89A+F360T (Thermosynechococcus elongatus PKUAC-SCTE542, SEQ ID NO: 1); assay: Herbicide tolerance test in E. coli, CyPPO19 R89A+F360T; type: cell-based; conditions: LB agar, 0 to 2,000 μM herbicide, 37° C., 16-20 hours
Description: as §1, §2, §3, §4, §5

[9] = target: Thermosynechococcus vulcanus NIES-2134 protoporphyrinogen IX oxidase CyPPO18 (SEQ ID NO: 3) variant V165C (MBP fusion) (Thermosynechococcus vestitus, UniProt Q8DLV2, V165C); type: biochemical; conditions: 50 μM protoporphyrinogen IX, pH 7.5, room temperature, 30 min
[10] = target: Thermosynechococcus elongatus PKUAC-SCTE542 protoporphyrinogen IX oxidase CyPPO19 (SEQ ID NO: 1) variant R89A (MBP fusion) (Thermosynechococcus sichuanensis, UniProt A0A7D6JSC1, R89A); assay: biochemical
[11] = target: Thermosynechococcus vulcanus NIES-2134 protoporphyrinogen IX oxidase CyPPO18 (SEQ ID NO: 3) variant A167C (MBP fusion) (Thermosynechococcus vestitus, UniProt Q8DLV2, A167C); assay: PPO enzyme inhibition assay (IC50 for herbicides), CyPPO18 A167C fused to MBP; type: biochemical; conditions: 50 μM protoporphyrinogen IX, pH 7.5, room temperature, 30 min
[12] = test system: PPO-deficient BT3 E. coli (ΔPPO) transformed with CyPPO18 variant V165S+A167L+V305M+F360I (Thermosynechococcus vulcanus NIES-2134, SEQ ID NO: 3); assay: Herbicide tolerance test in E. coli, CyPPO18 V165S+A167L+V305M+F360I; type: cell-based; parameters: key to the marks not given beside the values; conditions: LB agar, 0 to 2,000 μM herbicide, 37° C., 16-20 hours
Description: as §1, §2, §3, §4, §5

[13] = test system: PPO-deficient BT3 E. coli (ΔPPO) transformed with CyPPO19 variant V165C+F360M (Thermosynechococcus elongatus PKUAC-SCTE542, SEQ ID NO: 1); assay: Herbicide tolerance test in E. coli, CyPPO19 V165C+F360M; type: cell-based; conditions: LB agar, 0 to 2,000 μM herbicide, 37° C., 16-20 hours
Description: as §1, §2, §3, §4, §5

[14] = test system: PPO-deficient BT3 E. coli (ΔPPO) transformed with CyPPO19 variant V165C+F360I (Thermosynechococcus elongatus PKUAC-SCTE542, SEQ ID NO: 1); assay: Herbicide tolerance test in E. coli, CyPPO19 V165C+F360I; type: cell-based; conditions: LB agar, 0 to 2,000 μM herbicide, 37° C., 16-20 hours
Description: as §1, §2, §3, §4, §5

[15] = test system: PPO-deficient BT3 E. coli (ΔPPO) transformed with CyPPO19 variant V165C+F360V (Thermosynechococcus elongatus PKUAC-SCTE542, SEQ ID NO: 1); assay: Herbicide tolerance test in E. coli, CyPPO19 V165C+F360V; type: cell-based; conditions: LB agar, 0 to 2,000 μM herbicide, 37° C., 16-20 hours
Description: as §1, §2, §3, §4, §5

Chain of Thermosynechococcus vulcanus NIES-2134 protoporphyrinogen IX oxidase CyPPO18 (SEQ ID NO: 3) variant V165C (MBP fusion) (Q8DLV2 entry or part of it V165C): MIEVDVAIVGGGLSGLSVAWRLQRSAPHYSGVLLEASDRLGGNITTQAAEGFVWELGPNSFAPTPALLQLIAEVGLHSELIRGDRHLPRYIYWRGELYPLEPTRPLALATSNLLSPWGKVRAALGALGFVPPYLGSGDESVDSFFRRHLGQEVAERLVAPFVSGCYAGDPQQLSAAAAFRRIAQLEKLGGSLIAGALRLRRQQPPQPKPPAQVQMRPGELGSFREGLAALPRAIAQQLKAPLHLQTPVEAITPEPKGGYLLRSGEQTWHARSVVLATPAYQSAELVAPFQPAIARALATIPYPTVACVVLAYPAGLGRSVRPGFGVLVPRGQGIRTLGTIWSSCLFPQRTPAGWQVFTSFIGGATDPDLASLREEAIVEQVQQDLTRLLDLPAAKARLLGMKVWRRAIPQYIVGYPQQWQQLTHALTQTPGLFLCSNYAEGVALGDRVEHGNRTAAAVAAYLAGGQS
Chain of Thermosynechococcus vulcanus NIES-2134 protoporphyrinogen IX oxidase CyPPO18 (SEQ ID NO: 3) variant A167L (MBP fusion) (Q8DLV2 entry or part of it A167L): as the sequence (Q8DLV2 entry or part of it V165C) above, with C165V, A167L counted along it
Chain of Thermosynechococcus elongatus PKUAC-SCTE542 protoporphyrinogen IX oxidase CyPPO19 (SEQ ID NO: 1) variant V165C (MBP fusion) (A0A7D6JSC1 entry or part of it V165C): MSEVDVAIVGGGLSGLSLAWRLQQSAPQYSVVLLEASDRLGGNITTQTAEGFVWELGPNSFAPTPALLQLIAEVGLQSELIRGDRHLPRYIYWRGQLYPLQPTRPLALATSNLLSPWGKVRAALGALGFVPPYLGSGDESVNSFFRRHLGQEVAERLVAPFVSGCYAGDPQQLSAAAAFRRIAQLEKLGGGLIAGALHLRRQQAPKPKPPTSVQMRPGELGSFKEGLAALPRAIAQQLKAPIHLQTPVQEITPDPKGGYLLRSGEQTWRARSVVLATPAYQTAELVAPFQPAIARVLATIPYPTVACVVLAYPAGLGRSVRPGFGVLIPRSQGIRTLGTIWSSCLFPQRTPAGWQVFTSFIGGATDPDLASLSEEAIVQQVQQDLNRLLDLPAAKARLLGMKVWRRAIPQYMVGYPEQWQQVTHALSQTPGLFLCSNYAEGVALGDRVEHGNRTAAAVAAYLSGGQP
Chain of Thermosynechococcus elongatus PKUAC-SCTE542 protoporphyrinogen IX oxidase CyPPO19 (SEQ ID NO: 1) variant A167L (MBP fusion) (A0A7D6JSC1 entry or part of it A167L): as the sequence (A0A7D6JSC1 entry or part of it V165C) above, with C165V, A167L counted along it
Chain of Thermosynechococcus vulcanus NIES-2134 protoporphyrinogen IX oxidase CyPPO18 (SEQ ID NO: 3) variant L327T (MBP fusion) (Q8DLV2 entry or part of it L327T): as the sequence (Q8DLV2 entry or part of it V165C) above, with C165V, L327T counted along it
Chain of Thermosynechococcus vulcanus NIES-2134 protoporphyrinogen IX oxidase CyPPO18 (SEQ ID NO: 3) variant V165S (MBP fusion) (Q8DLV2 entry or part of it V165S): as the sequence (Q8DLV2 entry or part of it V165C) above, with C165S counted along it
Chain of Thermosynechococcus vulcanus NIES-2134 protoporphyrinogen IX oxidase CyPPO18 (SEQ ID NO: 3) variant A167C (MBP fusion) (Q8DLV2 entry or part of it A167C): as the sequence (Q8DLV2 entry or part of it V165C) above, with C165V, A167C counted along it
Chain of Thermosynechococcus elongatus PKUAC-SCTE542 protoporphyrinogen IX oxidase CyPPO19 (SEQ ID NO: 1) variant R89A (MBP fusion) (A0A7D6JSC1 entry or part of it R89A): as the sequence (A0A7D6JSC1 entry or part of it V165C) above, with R89A, C165V counted along it

Row | SMILES | tolerance level (relative growth of variant to wild type) [1] | IC50 [2] [µM] | tolerance level (relative growth of variant to wild type) [3] | IC50 [4] [µM] | IC50 [5] [µM] | IC50 [6] [µM] | IC50 ([7]; CyPPO19 V165C, 50 μM protoporphyrinogen IX, pH 7.5, room temperature, 30 min) [µM] | tolerance level (relative growth of variant to wild type) [8] | IC50 [9] [µM] | IC50 ([10]; CyPPO19 R89A, 50 μM protoporphyrinogen IX, pH 7.5, room temperature, 30 min) [µM] | IC50 [11] [µM] | tolerance level (relative growth of variant to wild type) [12] | tolerance level (relative growth of variant to wild type) [13] | tolerance level (relative growth of variant to wild type) [14] | tolerance level (relative growth of variant to wild type) [15] | IC50 ([4]; read-out: IC50) [µM] | IC50 [7] [µM] | IC50 [10] [µM]
1 | Cc1nn(-c2cc(CC(Cl)C(=O)O)c(Cl)cc2F)c(=O)n1C(F)F (stereo not drawn) [Carfentrazone] | + | 0.723 | ++ | ≥ 10 | 4.01 | 2.23 | 3.09 | + | 1.22 | 0.857 | 1.88 | ++ | + | + | + | – | – | –
2 | CCOc1cc(Oc2ccc(C(F)(F)F)cc2Cl)ccc1[N+](=O)[O-] [Oxyfluorfen] | + | 3.6 | + | – | 2.81 | 1.49 | – | + | 0.502 | – | 0.57 | ++ | ++ | + | ++ | 5.26 | 3.21 | 0.602
